These results are taken from patent US20090239841A1, “Diaryl Ureas as CB1 Antagonists” (priority 2004, published 2009).

For the experiment, the target named is T1, hCB1 (Homo sapiens, UniProt P21554).
T1 construct: made in house; host or cells: Sf9 insect cells (baculovirus), P2 membranes
Nature of the experiment: Agonist-induced GTP binding (GTPγ35S) assay at CB1, Example 8. The conditions noted are these: read-out: IC50. The experiment is classed as biochemical. An outline of the steps: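 Membranes from Sf9 cells co-expressing hCB1 and heterotrimeric G-protein (10 μg protein) in Tris pH 7.4 buffer with 5 μM GDP. Test compounds (10^−10–10^−5 M) competed against 1 nM CP55,940 with […] GTPγ35S, 60 min at room temperature. Filter-bound radioactivity by scintillation, expressed as percent above basal.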

The mark [1] stands for this setting: Table I, IC50 at CB1, GTP binding with 1 nM CP55,940.
The mark [2] stands for this setting: IC50 at CB1, determined as described in Example 8.
Setting [3] is: Table II, IC50 at CB1, GTP binding with 1 nM CP55,940.

Where two headings read alike, the source gives them in different places.

T1 sequence (P21554 whole entry): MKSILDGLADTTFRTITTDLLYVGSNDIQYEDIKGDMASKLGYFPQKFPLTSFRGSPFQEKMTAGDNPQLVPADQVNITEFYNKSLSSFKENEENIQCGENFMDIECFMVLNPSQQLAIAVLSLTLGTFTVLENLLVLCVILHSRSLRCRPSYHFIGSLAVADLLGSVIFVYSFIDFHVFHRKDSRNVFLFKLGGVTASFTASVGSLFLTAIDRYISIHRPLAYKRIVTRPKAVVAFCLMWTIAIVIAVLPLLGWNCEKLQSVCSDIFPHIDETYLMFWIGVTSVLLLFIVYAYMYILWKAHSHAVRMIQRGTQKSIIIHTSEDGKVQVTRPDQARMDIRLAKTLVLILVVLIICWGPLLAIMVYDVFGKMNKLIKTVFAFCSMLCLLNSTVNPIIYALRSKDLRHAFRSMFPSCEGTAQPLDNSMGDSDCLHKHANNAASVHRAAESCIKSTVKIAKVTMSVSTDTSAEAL

For the compound `Cc1ccc(NC(=O)Nc2ccc(Cl)cc2)cc1` [Compound 43, N-(4-chlorophenyl)-N′-(4-methylphenyl)urea], the 50% inhibitory concentration (IC50) under setting [1] is < 2000 nM. For the compound `CCOc1cccc(NC(=O)Nc2ccc(OC)cc2)c1` [Compound 542, 1-(3-ethoxyphenyl)-3-(4-methoxyphenyl)urea], under setting [2], the IC50 was < 2000 nM. Take `CCOc1ccc(NC(=O)Nc2ccc(C#N)cc2)cc1` [Compound 264, N-(4-cyanophenyl)-N′-(4-ethoxyphenyl)urea]: under setting [3], the IC50 was < 2000 nM.

`CC(C)Oc1ccc(NC(=O)Nc2cccc(Cl)c2)cc1` [Compound 251, N-(3-chlorophenyl)-N′-(4-isopropoxyphenyl)urea]: under setting [3], the IC50 was < 2000 nM. For the compound `CCCc1ccc(NC(=O)Nc2cccc(Cl)c2)cc1` [Compound 184, N-(3-chlorophenyl)-N′-(4-propylphenyl)urea], the IC50 under setting [3] was < 2000 nM.

With `CCOc1ccc(NC(=O)Nc2ccc(F)cc2)cc1` [Compound 206, N-(4-ethoxyphenyl)-N′-(4-fluorophenyl)urea], under setting [3], the IC50 is < 2000 nM.

Turning to `Cc1ccc(NC(=O)Nc2ccc(OCC#N)cc2)cc1C` [Compound 729, 1-[4-(cyanomethoxy)phenyl]-3-(3,4-dimethylphenyl)urea], the IC50 under setting [2] was < 2000 nM. With `CC(=O)c1ccc(NC(=O)Nc2ccc(F)cc2)cc1` [Compound 189, N-(4-acetylphenyl)-N′-(4-fluorophenyl)urea], the 50% inhibitory concentration (IC50) under setting [3] was < 2000 nM. With `Nc1ncc(Br)cc1NC(=O)Nc1ccc(OC(F)F)cc1` [Compound 136, N-(2-amino-5-bromopyridin-3-yl)-N′-[4-(difluoromethoxy)phenyl]urea], the IC50 under setting [3] is < 2000 nM. Turning to `Cc1ccc(NC(=O)Nc2cccc(OC(F)F)c2)cc1` [Compound 370, 1-[3-(difluoromethoxy)phenyl]-3-(4-methylphenyl)urea], the IC50 under setting [2] was < 2000 nM. For `Cc1ccc(NC(=O)Nc2ccc(CC#N)cc2)cc1F` [Compound 727, 1-[4-(cyanomethyl)phenyl]-3-(3-fluoro-4-methylphenyl)urea], the IC50 under setting [2] is < 2000 nM. As to `CC(=O)c1cccc(NC(=O)Nc2ccc(OC(C)C)cc2)c1` [Compound 423, 1-(3-acetylphenyl)-3-(4-isopropoxyphenyl)urea], the IC50 under setting [2] was < 2000 nM.

For `Cc1ccc(NC(=O)Nc2ccc(OC(F)F)cc2)cc1` [Compound 308, N-[4-(difluoromethoxy)phenyl]-N′-(4-methylphenyl)urea], the half-maximal inhibitory concentration (IC50) under setting [2] was < 2000 nM. The same measure, in the same setting: the same measure for `N#CCc1ccc(NC(=O)Nc2cccc(C#N)c2)cc1` [Compound 503, 1-[4-(cyanomethyl)phenyl]-3-(3-cyanophenyl)urea]: < 2000 nM; for `COC(=O)c1ccc(NC(=O)Nc2cccc(OC(F)F)c2)cc1` [Compound 677, methyl 4-[({[3-(difluoromethoxy)phenyl]amino}carbonyl)amino]benzoate]: < 2000 nM. On the same count and under the same terms, the same measure for `CCOC(=O)c1cccc(NC(=O)Nc2ccc(Cl)cc2)c1` [Compound 648, ethyl 3-({[(4-chlorophenyl)amino]carbonyl}amino)benzoate]: < 2000 nM. Consider `O=C(Nc1ccc(OC(F)F)cc1)Nc1ccc2c(c1)CCC2` [Compound 80, N-[4-(difluoromethoxy)phenyl]-N′-(2,3-dihydro-1H-inden-5-yl)urea], for which, under setting [3], the IC50 is < 2000 nM. Take `CCc1ccc(NC(=O)Nc2ccc(C)cn2)cc1` [Compound 641, 1-(4-ethylphenyl)-3-(5-methylpyridin-2-yl)urea]: under setting [2], the IC50 is < 2000 nM. `COC(=O)c1ccc(NC(=O)Nc2ccc(F)cc2)cc1` [Compound 472, methyl 4-({[(4-fluorophenyl)amino]carbonyl)amino)benzoate]: the IC50 under setting [2] is < 2000 nM. Consider `CCCc1ccc(NC(=O)Nc2ccc(F)cc2)cc1` [Compound 178, N-(4-fluorophenyl)-N′-(4-propylphenyl)urea], for which, under setting [3], the IC50 was < 2000 nM. Still for that read-out and setting: next, `CC(C)Oc1cccc(NC(=O)Nc2cccc(Cl)c2)c1` [Compound 247, N-(3-chlorophenyl)-N′-(3-isopropoxyphenyl)urea]: < 2000 nM. Take `CCCOc1ccc(NC(=O)Nc2ccccc2)cc1` [Compound 303, N-phenyl-N′-(4-propoxyphenyl)urea]: under setting [2], the IC50 is < 2000 nM. Still for that read-out and setting: the same measure for `COCc1ccc(NC(=O)Nc2ccc(C)c(F)c2)cc1` [Compound 685, 1-(3-fluoro-4-methylphenyl)-3-[4-(methoxymethyl)phenyl]urea]: < 2000 nM.

For the compound `CC(C)Oc1cccc(NC(=O)Nc2ccccc2)c1` [Compound 49, N-(3-isopropoxyphenyl)-N′-phenylurea], under setting [1], the IC50 is < 2000 nM. `CCc1ccc(NC(=O)Nc2cccc(CC)c2)cc1` [Compound 329, 1-(3-ethylphenyl)-3-(4-ethylphenyl)urea]: under setting [2], the IC50 was < 2000 nM. Regarding `CC(C)Oc1ccc(NC(=O)Nc2cccc(OC(F)F)c2)cc1` [Compound 144, N-[3-(difluoromethoxy)phenyl]-N′-(4-isopropoxyphenyl)urea], under setting [3], the IC50 is < 2000 nM.

On to `CCCc1ccc(NC(=O)Nc2ccc(C(C)=O)cc2)cc1` [Compound 352, 1-(4-acetylphenyl)-3-(4-propylphenyl)urea], for which the IC50 under setting [2] is < 2000 nM. `CCOc1cccc(NC(=O)Nc2ccc(C(=O)OC)cc2)c1` [Compound 660, methyl 4-({[(3-ethoxyphenyl)amino]carbonyl}amino)benzoate]: the IC50 under setting [2] was < 2000 nM. With `CCC(=O)c1ccc(NC(=O)Nc2ccc(F)c(C)c2)cc1` [Compound 735, 1-(4-fluoro-3-methylphenyl)-3-(4-propionylphenyl)urea], the IC50 under setting [2] is < 2000 nM. Regarding `COCc1ccc(NC(=O)Nc2cccc(C(=O)OC)c2)cc1` [Compound 667, methyl 3-[({[4-(methoxymethyl)phenyl]amino}carbonyl)amino]benzoate], under setting [2], the IC50 was < 2000 nM. In the case of `COc1ccc(NC(=O)Nc2ccc(OC(F)F)cc2)cn1` [Compound 113, N-[4-(difluoromethoxy)phenyl]-N′-(6-methoxypyridin-3-yl)urea], the IC50 under setting [3] was < 2000 nM. Consider `CCc1ccc(NC(=O)Nc2ccc(OC(F)F)cc2)cc1` [Compound 5, N-[4-(difluoromethoxy)phenyl]-N′-(4-ethylphenyl)urea], for which, under setting [1], the IC50 is < 2000 nM. As to `COC(=O)c1ccc(NC(=O)Nc2ccc(OCC#N)cc2)cc1` [Compound 717, methyl 4-[({[4-(cyanomethoxy)phenyl]amino}carbonyl)amino] benzoate], under setting [2], the IC50 is < 2000 nM.

As for `CCCOc1ccc(NC(=O)Nc2cccc(CC)c2)cc1` [Compound 243, N-(3-ethylphenyl)-N′-(4-propoxyphenyl)urea], the IC50 under setting [3] was < 2000 nM. `COc1ccc(NC(=O)Nc2ccc(C(C)=O)cc2)cc1` [Compound 260, N-(4-acetylphenyl)-N′-(4-methoxyphenyl)urea]: the IC50 under setting [3] is < 2000 nM. For `CCCCc1ccc(NC(=O)Nc2ccc(C)cc2)cc1` [Compound 37, N-(4-butylphenyl)-N′-(4-methylphenyl)urea], under setting [1], the IC50 was < 2000 nM. Turning to `CCCCc1ccc(NC(=O)Nc2ccccc2)cc1` [Compound 294, N-(4-butylphenyl)-N′-phenylurea], under setting [2], the IC50 is < 2000 nM.

With `CCCc1ccc(NC(=O)Nc2ccc(C)c(C)c2)cc1` [Compound 654, 1-(3,4-dimethylphenyl)-3-(4-propylphenyl)urea], under setting [2], the IC50 is < 2000 nM. Take `N#CCOc1ccc(NC(=O)Nc2ccc(F)cc2)cc1` [Compound 467, 1-[4-(cyanomethoxy)phenyl]-3-(4-fluorophenyl)urea]: the IC50 under setting [2] was < 2000 nM. Same read-out and setting: the same measure for `CCCOc1ccc(NC(=O)Nc2ccc(Cl)cc2)cc1` [Compound 398, 1-(4-chlorophenyl)-3-(4-propoxyphenyl)urea]: < 2000 nM; for `COC(=O)c1cccc(NC(=O)Nc2ccc(Cl)cc2)c1` [Compound 647, methyl 3-({[(4-chlorophenyl)amino]carbonyl}amino)benzoate]: < 2000 nM; for `CCOC(=O)c1cccc(NC(=O)Nc2cccc(OC(F)F)c2)c1` [Compound 782, ethyl 3-[({[3-(difluoromethoxy)phenyl]amino}carbonyl)amino] benzoate]: < 2000 nM. `CCOc1ccc(NC(=O)Nc2ccc(Cl)c(C(F)(F)F)c2)cc1` [Compound 625, 1-[4-chloro-3-(trifluoromethyl)phenyl]-3-(4-ethoxyphenyl)urea]: the IC50 under setting [2] was < 2000 nM. As for `Cc1ccc(NC(=O)Nc2ccc(CC#N)cc2)cc1C` [Compound 726, 1-[4-(cyanomethyl)phenyl]-3-(3,4-dimethylphenyl)urea], the IC50 under setting [2] is < 2000 nM. Same read-out and setting: next, `CC(=O)c1ccc(NC(=O)Nc2ccc3c(c2)CCC3)cc1` [Compound 456, 1-(4-acetylphenyl)-3-(2,3-dihydro-1H-inden-5-yl)urea]: < 2000 nM; `CCn1nnnc1-c1ccc(NC(=O)Nc2cccc(OC(F)F)c2)cc1` [Compound 791, N-[3-(difluoromethoxy)phenyl]-N′-[4-(1-ethyl-1H-tetrazol-5-yl)phenyl]urea]: < 2000 nM. With `CCCOc1ccc(NC(=O)Nc2ccccc2)cc1` [Compound 44, N-phenyl-N′-(4-propoxyphenyl)urea], the IC50 under setting [1] was < 2000 nM.

Regarding `CCc1ccc(NC(=O)Nc2ccc(C)cc2)cc1` [Compound 290, N-(4-ethylphenyl)-N′-(4-methylphenyl)urea], the IC50 under setting [2] is < 2000 nM. `N#Cc1cccc(NC(=O)Nc2ccc(OC(F)F)cc2)c1` [Compound 8, N-(3-cyanophenyl)-N′-[4-(difluoromethoxy)phenyl]urea]: the concentration for half-maximal inhibition (IC50) under setting [1] is < 2000 nM.

`CCOc1cccc(NC(=O)Nc2ccc(OC(F)F)cc2)c1` [Compound 9, N-[4-(difluoromethoxy)phenyl]-N′-(3-ethoxyphenyl)urea]: under setting [1], the IC50 was < 2000 nM. With `Cc1ccc(F)cc1NC(=O)Nc1ccc(OC(C)C)cc1` [Compound 698, 1-(5-fluoro-2-methylphenyl)-3-(4-isopropoxyphenyl)urea], under setting [2], the half-inhibitory concentration (IC50) was < 2000 nM.

The term IC50 denotes the midpoint of a concentration-inhibition curve.
